Source: ChEMBL document CHEMBL1151713, “S-alkenyl cysteine sulfoxide and its antioxidant properties from Allium cepa var. tropeana (red onion) seeds” (J Nat Prod, 2008)

What was measured:
[1] = Antioxidant activity by ferric reducing antioxidant power assay; format: functional
[2] = system: Radical scavenging activity; assay: Antioxidant activity assessed as DPPH radical scavenging activity by Brand-Williams method; format: functional

O=C1O[C@H]([C@@H](O)CO)C(O)=C1O
Activity [1]: 824 µM
Activity [2]: 903 µM

Cc1cc(C(C)(C)C)c(O)c(C(C)(C)C)c1
Activity [1]: 677 µM
Activity [2]: 637 µM

C/C=C/CC[S+]([O-])C[C@@H](N)C(=O)O (stereo partly specified)
Activity [1]: 178 µM
Activity [2]: 107 µM
